What was measured:
[1] = system: 5/6 nephrectomy rat model of CKD; experiment: 5/6 nephrectomy rat model of CKD; type: in vivo; details: PD173074 1 mg/kg/day i.p. 14 days
Description: FGFR activity is required for the development of LVH in a rat model of CKD Since the cardiac effects of FGF23 are mediated by FGFR activation and could be blocked in vitro by the FGFR inhibitor PD173074, we tested the hypothesis that PD173074 could also attenuate LVH in the 5/6 nephrectomy rat model of CKD, which is known to develop increased FGF23 levels, severe hypertension, and LVH. We performed 5/6 nephrectomy in male Sprague Dawley rats using standard surgical techniques, and administered by intra-peritoneal injection either 1 mg/kg body weight/day of PD173074 dissolved in PBS (n=6) or vehicle alone (n=6) beginning one hour after surgery and continued daily for 14 days (FIG. 7). As a negative control, 6 rats underwent sham nephrectomy. At day 14 after surgery, we measured blood pressure, performed echocardiograms, collected blood for laboratory testing, sacrificed the animals and examined their hearts. […] Compared with vehicle, PD 173074 treatment led to decreased left ventricular mass, reduced ratio of heart weight to total body weight, decreased left ventricular wall thickness and relative wall thickness, decreased cross-sectional surface area of individual cardiac myocytes, and increased left ventricular end diastolic volume and ejection fraction (FIG. 7A-C). […]
Kidney disease was induced in Sprague Dawley rats using the 5/6 nephrectomy method (Di Marco et al., 2014). Rats were randomized to 3 groups of 6 animals each: sham nephrectomy, or 5/6 nephrectomy plus intra-peritoneal injections of vehicle (PBS) or anti-FGFR4 blocking antibody (human monoclonal, U3-11; U3Pharma) at 25 mg/kg/day every 3 days beginning one hour after surgery. High-resolution echocardiography (15 MHz) was performed at 14 days after surgery to assess LV mass, wall and chamber dimensions, and systolic and diastolic function using an HDI 5000 Ultrasound system (Philips, Best, The Netherlands). M-mode, 2D and 3D recordings were obtained under general anesthesia delivered through a nose mask while heart rate and body temperature were maintained. Blood pressure was measured in conscious rats using a computerized rat-tail cuff technique (CODA, Kent Scientific Corporation). On day 14, animals were sacrificed and the hearts were isolated and prepared for histological and serological analyses.
Short-axis heart sections were stained with hematoxylin and eosin (VWR) and used to quantify myocardial thickness by measuring the distance from the inner to the outer myocardial edges at the mid-chamber zone. Mean left ventricular free wall thickness was calculated from seven measurements of wall thickness taken at 0, 30, 60, 90, 120, 150 and 180 degrees along the hemi-circle of the short axis of the free wall. Images were taken on a Nikon SMZ 1500 microscope using 0.75× magnification.
We measured cross-sectional area of individual cardiac myocytes in paraffin-embedded short-axis sections of mouse and rat hearts. Briefly, 7 μm thick sections were deparaffinized according to our established protocols (Faul et al., 2011). To visualize cellular borders, fixed tissue was incubated with wheat germ agglutinin (WGA) conjugated to Alexa Fluor555 (Invitrogen) at 1 mg/ml in PBS containing 10 mM sodium azide. Immunofluorescence images were taken on a Leica TCS-SP5 confocal microscope with a 63× oil objective. Leica AF6000 fluorescence software was used to quantify cross-sectional area of 25 cells per field at four fields along the mid-chamber free wall based on WGA-positive staining.
Short-axis cardiac sections from mice and rats were stained with Picrosirius Red (Sigma-Aldrich) and used to quantify myocardial fibrosis. Sections were deparaffinized, counterstained with hematoxylin (VWR) and incubated in Picrosirius Red solution for 60 minutes. After washing in acidified water, sections were dehydrated in ascending ethanol series and mounted in non-aqueous mounting media. […]

FGFR4 = target: T1, FGFR4 (Rattus norvegicus, UniProt Q498D6); experiment: Binding of PLCγ to FGFR4 in NRVM (immunoprecipitation); type: cell-based; details: 30 minutes, vs PBS or FGF2
T1 construct: endogenous in cells; host or cells: isolated neonatal rat ventricular myocytes (NRVM)
T1 sequence (Q498D6 17-800): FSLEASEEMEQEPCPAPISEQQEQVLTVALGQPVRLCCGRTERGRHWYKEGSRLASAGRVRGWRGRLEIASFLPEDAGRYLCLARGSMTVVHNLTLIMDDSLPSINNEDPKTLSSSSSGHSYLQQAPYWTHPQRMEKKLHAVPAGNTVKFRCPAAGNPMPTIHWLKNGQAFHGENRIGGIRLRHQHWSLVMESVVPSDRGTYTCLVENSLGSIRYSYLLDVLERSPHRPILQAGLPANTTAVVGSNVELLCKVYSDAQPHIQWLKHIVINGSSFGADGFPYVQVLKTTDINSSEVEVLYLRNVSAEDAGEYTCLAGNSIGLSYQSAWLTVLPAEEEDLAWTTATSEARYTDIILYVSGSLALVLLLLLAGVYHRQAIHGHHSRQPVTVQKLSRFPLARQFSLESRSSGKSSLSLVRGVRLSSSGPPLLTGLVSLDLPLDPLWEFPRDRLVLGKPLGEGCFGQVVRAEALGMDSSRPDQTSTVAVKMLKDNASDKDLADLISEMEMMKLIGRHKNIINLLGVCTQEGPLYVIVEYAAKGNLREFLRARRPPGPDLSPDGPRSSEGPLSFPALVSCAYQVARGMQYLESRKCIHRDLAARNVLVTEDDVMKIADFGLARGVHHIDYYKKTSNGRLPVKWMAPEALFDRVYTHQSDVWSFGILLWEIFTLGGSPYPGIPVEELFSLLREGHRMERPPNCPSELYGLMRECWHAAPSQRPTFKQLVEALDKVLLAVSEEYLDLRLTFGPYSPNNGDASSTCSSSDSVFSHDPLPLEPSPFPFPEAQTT
Protocol: HEK293 cells in 10 cm-dishes were treated with growth factors for 30 minutes, cells were scraped using 1 ml IP buffer (50 mM Tris-HCl pH7.5, 150 mM NaCl, 5 mM MgCl2, 2 mM EGTA, 1% Triton X-100, 5% Glycerol, protease and phosphatase inhibitors), and protein lysates were prepared as described above. V5-tagged proteins were immunoprecipitated using 25 μl of anti-V5 agarose beads (Sigma-Aldrich). After 5 washes in IP buffer, proteins were eluted in 100 μl of sample buffer and analyzed by SDS-PAGE and immunoblotting. For endogenous immunoprecipitation studies from NRVM, cells in 10cm-dishes were treated with growth factors for 30 minutes. Some cells were pre-treated with FGFR4 blocking antibody at 10 μg/ml for 1 hour (human monoclonal, U3-11; U3Pharma). […] We added 50 μl of a 1:1 mix of Protein A on sepharose beads and Protein G on agarose beads that were previously equilibrated in RIPA buffer, followed by incubation at 4° C. under rotation for 2 hours, protein elution in sample buffer, and SDS-PAGE and Western blot analyses.

[2] = Pharmacokinetic study of FGF23 in rats; type: in vivo, rat
Protocol: High systemic levels of FGF23 results in left ventricular hypertrophy in mice. […] Therefore, we administered FGF23 intravenously to determine if systemically elevated FGF23 levels could also induce LVH. We injected 40 μg/kg of recombinant FGF23 dissolved in 200 μl of PBS into the tail vein of adult wild type mice twice daily for 5 days with eight hours between daily doses. The dose of FGF23 was chosen based on published reports in which a similar dose stimulated ERK phosphorylation and increased Egr-1 expression (Urakawa et al., Nature, 444(7120):770-774, […]). The frequency of injections was chosen based on a pharmacokinetic study of adult wild type rats in which we injected a single dose of 40 μg/kg of FGF23. […] Thus, we estimated that two daily injections of 40 μg/kg would provide elevated FGF23 levels for at least 8 hours per day in mice. Control animals underwent the same injection schedule using 200 μl of PBS alone. On the morning of day 6, blood was collected for assay of FGF23, mice were sacrificed and the hearts examined.

## CCN(CC)CCCCNc1ncc2cc(-c3cc(OC)cc(OC)c3)c(NC(=O)NC(C)(C)C)nc2n1 [PD173074]
[1]
  5/6 nephrectomy-induced increased cardiac β-MHC and ANP and decreased MCAD mRNA: not observed
  blood pressure vs vehicle: no difference was detected
  renal function and serum FGF23 levels vs vehicle: no differences
[1]; vs vehicle
  LVH: significantly attenuated
  cross-sectional surface area of individual cardiac myocytes: decreased
  left ventricular end diastolic volume and ejection fraction: increased
  left ventricular mass: decreased
  left ventricular wall thickness and relative wall thickness: decreased
  ratio of heart weight to total body weight: reduced
[1]; vs sham and 5/6 nephrectomized rats
  hepatic expression of p-ERK protein levels: decreased

B1: FGF23: recombinant mouse FGF23, 6His-tagged Tyr25-Val251 (Arg179Gln) (R&D Systems) (protein)
chain: YPDTSPLLGSNWGSLTHLYTATARTSYHLQIHRDGHVDGTPHQTIYSALMITSEDAGSVVITGAMTRRFLCMDLHGNIFGSLHFSPENCKFRQWTLENGYDVYLSQKHHYLVSLGRAKRIFQPGTNPPPFSQFLARRNEVPLLHFYTVRPRRHTQSAEDPPERDPLNVLKPRPRATPVPVSCSRELPSAEEGGPAASDPLGVLRRGRGDARGGAGGADRCRPFPRFV
modifications: left off: small tags and cut ends
FGFR4
  levels of co-purified FGFR4 in anti-PLCγ eluates: elevated
[2]; adult wild type rats, single dose of 40 μg/kg
  half-life of circulating FGF23: 30 min
[2]; rats, single dose 40 μg/kg, four hours post injection
  plasma levels: remained elevated above baseline
